According to PubChem BioAssay AID248 (DTP/NCI, 2004):
Values joined by “and” are separate entries in the source; they are usually repeats but may differ in a detail not shown here. Equal values may be shown once. Toxic doses and inconclusive results are not listed. Cut-off read from the data, not from the text of the source: active = T/C of 150% or more; inactive = T/C below 125%.

Tested on: L1210 leukemia ip in BDF1 mice, survival T/C
Experiment: NCI In Vivo Anticancer Drug Screen. Data for tumor model L1210 Leukemia (intraperitoneal) in B6D2F1 (BDF1) mice
Settings: endpoint: mean survival time, higher = longer survival
How it was run: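 Transplanted-tumor mice were given test agent; controls received vehicle only. Survival readings from the two groups were divided (treated over control).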

[1] = dose: 100.0 mg/kg/injection, schedule: Q01DX009 (ip), vehicle: saline
[2] = dose: 100.0 mg/kg/injection, schedule: Q04DX003 (ip), vehicle: saline
[3] = dose: 200.0 mg/kg/injection, schedule: Q01DX009 (ip), vehicle: saline
[4] = dose: 200.0 mg/kg/injection, schedule: Q04DX003 (ip), vehicle: saline
[5] = dose: 100.0 mg/kg/injection, schedule: Q04DX003 (ip), vehicle: saline with Tween-80
[6] = dose: 200.0 mg/kg/injection, schedule: Q04DX003 (ip), vehicle: saline with Tween-80
[7] = dose: 400.0 mg/kg/injection, schedule: Q04DX003 (ip), vehicle: saline with Tween-80
[8] = dose: 400.0 mg/kg/injection, schedule: Q04DX003 (ip), vehicle: saline

Measured: T/C

CCOc1ccc(N=Cc2cccc([N+](=O)[O-])c2)cc1
inactive: dose: 100.0 mg/kg/injection, schedule: Q01DX001 (ip), vehicle: saline with Tween-80 103 % of control | dose: 100.0 mg/kg/injection, schedule: Q01DX009 (ip), vehicle: saline with Tween-80 107 % of control and 90 % of control | dose: 200.0 mg/kg/injection, schedule: Q01DX001 (ip), vehicle: saline with Tween-80 90 % of control | dose: 200.0 mg/kg/injection, schedule: Q01DX009 (ip), vehicle: saline with Tween-80 97 % of control and 90 % of control | dose: 400.0 mg/kg/injection, schedule: Q01DX001 (ip), vehicle: saline with Tween-80 99 % of control | dose: 400.0 mg/kg/injection, schedule: Q01DX009 (ip), vehicle: saline with Tween-80 100 % of control and 91 % of control

O=[N+]([O-])CC(O)c1ccc2ccccc2n1 (centres undefined)
inactive: dose: 50.0 mg/kg/injection, schedule: Q01DX009 (ip), vehicle: water 100 % of control | [1] 91 % of control | dose: 100.0 mg/kg/injection, schedule: Q01DX009 (ip), vehicle: water 100 % of control | [2] 93 % of control | [3] 94 % of control | dose: 200.0 mg/kg/injection, schedule: Q01DX009 (ip), vehicle: water 87 % of control | [4] 90 % of control

CC1CC[N-]CC1.CC1CC[N-]CC1.CC1CC[N-]CC1.CC1CC[N-]CC1.O=C([O-])C(=O)[O-].O=C([O-])C(=O)[O-].[Nb+5].[O-][O-].[O-][O-].[Pt+4]
inactive: dose: 0.25 mg/kg/injection, schedule: Q01DX009 (ip), vehicle: saline 96 % of control | dose: 0.39 mg/kg/injection, schedule: Q04DX003 (ip), vehicle: saline 110 % of control | dose: 0.5 mg/kg/injection, schedule: Q01DX009 (ip), vehicle: saline 93 % of control | dose: 0.78 mg/kg/injection, schedule: Q04DX003 (ip), vehicle: saline 110 % of control | dose: 1.0 mg/kg/injection, schedule: Q01DX009 (ip), vehicle: saline 98 % of control | dose: 1.56 mg/kg/injection, schedule: Q04DX003 (ip), vehicle: saline 101 % of control | dose: 2.0 mg/kg/injection, schedule: Q01DX009 (ip), vehicle: saline 102 % of control | dose: 3.12 mg/kg/injection, schedule: Q04DX003 (ip), vehicle: saline 96 % of control and 111 % of control

COc1ccc(OC)c(NC(=O)Nc2cccc(C(C)=O)c2)c1
inactive: dose: 100.0 mg/kg/injection, schedule: Q01DX009 (ip), vehicle: Klucel (hydroxypropylcellulose) (HPC) 96 % of control | dose: 200.0 mg/kg/injection, schedule: Q01DX009 (ip), vehicle: Klucel (hydroxypropylcellulose) (HPC) 106 % of control | dose: 400.0 mg/kg/injection, schedule: Q01DX009 (ip), vehicle: Klucel (hydroxypropylcellulose) (HPC) 102 % of control

CCCC(=O)c1c(O)cc(O)cc1O
inactive: dose: 100.0 mg/kg/injection, schedule: Q01DX001 (ip), vehicle: carboxymethylcellulose (CMC) 98 % of control | dose: 200.0 mg/kg/injection, schedule: Q01DX001 (ip), vehicle: carboxymethylcellulose (CMC) 96 % of control | dose: 400.0 mg/kg/injection, schedule: Q01DX001 (ip), vehicle: carboxymethylcellulose (CMC) 93 % of control

O=C1CCN(Cl)C(=O)N1Cl
inactive: dose: 5.0 mg/kg/injection, schedule: Q01DX001 (ip), vehicle: saline 93 % of control | dose: 10.0 mg/kg/injection, schedule: Q01DX001 (ip), vehicle: saline 95 % of control | dose: 20.0 mg/kg/injection, schedule: Q01DX001 (ip), vehicle: saline 97 % of control

CC(Cl)CN1Cc2ccccc2CCc2ccccc2C1 (centres undefined)
inactive: dose: 25.0 mg/kg/injection, schedule: Q04DX002 (ip), vehicle: Klucel (hydroxypropylcellulose) (HPC) 101 % of control | dose: 50.0 mg/kg/injection, schedule: Q04DX002 (ip), vehicle: Klucel (hydroxypropylcellulose) (HPC) 92 % of control

O=C(NC1C=CCCC1)NC1C=CCCC1 (centres undefined)
inactive: dose: 50.0 mg/kg/injection, schedule: Q01DX001 (ip), vehicle: other 88 % of control | dose: 100.0 mg/kg/injection, schedule: Q01DX001 (ip), vehicle: other 94 % of control | dose: 200.0 mg/kg/injection, schedule: Q01DX001 (ip), vehicle: other 97 % of control | dose: 400.0 mg/kg/injection, schedule: Q01DX001 (ip), vehicle: other 94 % of control

O=C1CCC2=C(CCCCCC2)N1c1ccccc1
inactive: [5] 110 % of control | [6] 110 % of control | [7] 98 % of control

C/C=C/C(=O)Nc1cccc(OC(=O)NC(C)C)c1
inactive: [5] 95 % of control | [6] 93 % of control | [7] 87 % of control

O=S(=O)(SSS(=O)(=O)c1ccc(Cl)cc1)c1ccc(Cl)cc1
inactive: [2] 90 % of control | [4] 90 % of control | [8] 90 % of control

O=C(O)/C=C\C(=O)Nc1ccccc1[N+](=O)[O-]
inactive: dose: 100.0 mg/kg/injection, schedule: Q04DX002 (ip), vehicle: Klucel (hydroxypropylcellulose) (HPC) 90 % of control | dose: 200.0 mg/kg/injection, schedule: Q04DX002 (ip), vehicle: Klucel (hydroxypropylcellulose) (HPC) 114 % of control | dose: 400.0 mg/kg/injection, schedule: Q04DX002 (ip), vehicle: Klucel (hydroxypropylcellulose) (HPC) 104 % of control

C=C(NC(=O)C(NC(=O)C(CCCCN)NC(=O)C1CSC(C)C2NC(=O)C(CC(C)C)NC(=O)C(NC(=O)C(CCC(N)=O)NC(=O)C(CC(C)C)NC(=O)C(Cc3ccccc3)NC(=O)C3CSC(C)C(NC(=O)C(NC(=O)C4CSC(C)C(NC(=O)C5CSCC(NC(=O)C(CCCCN)NC(=O)C(N)Cc6c[nH]c7ccccc67)C(=O)NC(CCC(=O)O)C(=O)NC(=C)C(=O)NC(CC(C)C)C(=O)N5)C(=O)N5CCCC5C(=O)NCC(=O)N4)C(C)C)C(=O)NCC(=O)NC(C)C(=O)NC(CC(C)C)C(=O)NC(CCC(N)=O)C(=O)N/C(=C/C)C(=O)N3)C(C)SCC(NC2=O)C(=O)NC(CC(N)=O)C(=O)N1)C(C)CC)C(=O)NC(CCCCN)C(=O)O (centres undefined)
inactive: dose: 100.0 mg/kg/injection, schedule: Q04DX002 (ip), vehicle: saline with Tween-80 108 % of control | dose: 200.0 mg/kg/injection, schedule: Q04DX002 (ip), vehicle: saline with Tween-80 94 % of control | dose: 400.0 mg/kg/injection, schedule: Q04DX002 (ip), vehicle: saline with Tween-80 92 % of control

C[n+]1cc(C#N)cc(C#N)c1
inactive: dose: 75.0 mg/kg/injection, schedule: Q01DX001 (ip), vehicle: saline 90 % of control | dose: 150.0 mg/kg/injection, schedule: Q01DX001 (ip), vehicle: saline 108 % of control

C=C(C)COc1c(C)c(C)c(OS(=O)(=O)c2ccc(Br)cc2)c(C)c1C
inactive: dose: 100.0 mg/kg/injection, schedule: Q01DX001 (ip), vehicle: Klucel (hydroxypropylcellulose) (HPC) 97 % of control | dose: 200.0 mg/kg/injection, schedule: Q01DX001 (ip), vehicle: Klucel (hydroxypropylcellulose) (HPC) 89 % of control | dose: 400.0 mg/kg/injection, schedule: Q01DX001 (ip), vehicle: Klucel (hydroxypropylcellulose) (HPC) 100 % of control

Oc1c(Br)cc(Br)cc1C=Nc1ccc(Cl)cc1.Oc1c(Br)cc(Br)cc1C=Nc1ccc(Cl)cc1.[Co]
inactive: [5] 98 % of control | [6] 103 % of control | [7] 98 % of control

C[N+](C)(C)CC[N+](C)(C)C
inactive: [1] 108 % of control | [2] 100 % of control | [3] 106 % of control | [4] 110 % of control | dose: 400.0 mg/kg/injection, schedule: Q01DX009 (ip), vehicle: saline 100 % of control | [8] 97 % of control

N/C(=N\N=C\c1ccccn1)c1ccccn1
inactive: dose: 10.0 mg/kg/injection, schedule: Q01DX001 (ip), vehicle: water 93 % of control

CCCCc1c(C)c2c(O)cc(C)cc2oc1=O
inactive: dose: 100.0 mg/kg/injection, schedule: Q01DX001 (ip), vehicle: acetone 92 % of control | dose: 200.0 mg/kg/injection, schedule: Q01DX001 (ip), vehicle: acetone 95 % of control | dose: 400.0 mg/kg/injection, schedule: Q01DX001 (ip), vehicle: acetone 92 % of control
